In this experiment the target is LSD-1 enzyme (Homo sapiens (Human), UniProt O60341). The experiment in a line: LANCE LSD1/KDM1A demethylase assay (LSD1 histone demethylase biochemical assay). As to conditions: 1 nM LSD-1 enzyme, 1 hour preincubation at 25° C., 0.4 μM biotin-labeled Histone H3 peptide substrate. The method, then:
LANCE LSD1/KDM1A demethylase assay—10 μL of 1 nM LSD-1 enzyme (ENZO BML-SE544-0050) in the assay buffer (50 mM Tris, pH 7.5, 0.01% Tween-20, 25 mM NaCl, 5 mM DTT) were preincubated for 1 hour at 25° C. with 0.8 μL compound/DMSO dotted in black 384 well polystyrene plates. […] After stopping the reactions plates were incubated for 30 minutes and read on a PHERAstar FS plate reader (BMG Labtech).

A value given as a limit tells only on which side of the number the result lay.

Molecule `N#CCC1(N2CC(CN[C@@H]3C[C@H]3c3ccccc3)C2)CCNCC1` (relative stereo) [Example 16, [4-(3-{[(trans-2-Phenylcyclopropyl)amino]methyl}azetidin-1-yl)piperidin-4-yl]acetonitrile] had an IC50 of at most 100 nM.

The values above are taken from patent US9994546B2, “Cyclopropylamines as LSD1 inhibitors” (Incyte Corporation, priority 2014, dated 2018).
